# Results: PMC3475717, “A Spiroligomer α-Helix Mimic That Binds HDM2, Penetrates Human Cells and Stabilizes HDM2 in Cell Culture” (PLoS ONE, 2012)
# “Also recorded” adds a separate entry of the source.
# Tests used:
# HDMX = target: T1, HDMX (Homo sapiens, UniProt O15151); test: binding experiments with HDMX
# T1 sequence (O15151 1-490): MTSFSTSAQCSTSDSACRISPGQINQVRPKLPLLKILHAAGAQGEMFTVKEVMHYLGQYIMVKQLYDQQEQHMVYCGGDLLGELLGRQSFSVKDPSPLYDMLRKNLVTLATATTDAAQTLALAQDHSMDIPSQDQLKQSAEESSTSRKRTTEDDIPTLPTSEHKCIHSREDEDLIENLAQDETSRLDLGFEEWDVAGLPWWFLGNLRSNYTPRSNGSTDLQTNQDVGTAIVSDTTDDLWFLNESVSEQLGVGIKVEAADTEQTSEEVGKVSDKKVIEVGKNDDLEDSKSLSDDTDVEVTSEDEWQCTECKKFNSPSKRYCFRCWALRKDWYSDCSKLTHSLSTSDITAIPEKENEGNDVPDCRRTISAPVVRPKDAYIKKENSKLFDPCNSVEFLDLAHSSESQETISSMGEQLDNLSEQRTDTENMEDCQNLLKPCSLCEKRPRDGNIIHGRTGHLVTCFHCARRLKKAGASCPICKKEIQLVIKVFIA
# HepG2 cells = test: cell penetration, fluorescence and confocal microscopy; active vs. passive transport; format: cell-based, human
# Description: Cell Culture and Treatment. HepG2 (expressing wild-type p53) and Huh7 (expressing mutant p53) cell lines were purchased from the American Type Culture Collection (ATCC) and cultured as monolayers in Dulbecco’s modified Eagle’s medium (DMEM) (Invitrogen) supplemented with 100 mM nonessential amino acid solution, 100 mM sodium pyruvate, 100 U/mL penicillin, 100 μg/mL streptomycin, and 10% heat inactivated fetal bovine serum (FBS) (all from Hyclone).
# Cells were maintained at 37° C and 5% CO2 and were treated with media that contained 0.5%
# FBS. Nutlin-3 (Sigma) was dissolved in 0.01% DMSO (Sigma). This concentration of DMSO did not affect the cell phenotype. Both nutlin-3 and spiroligomers were added into the medium for final concentrations of 2 µM, 5 µM, 10 µM and 20 µM for 24 hours. For the western blot experiments detailed below, the time length for incubation with bis-peptide was 17 hours.
# Fluorescence and Confocal Microscopy. Fluorescence and confocal microscopy were applied to live and fixed cells. Cells were grown on glass chambers and fixed with ice-cold 95:5 ethanol/acetic acid for 10 minutes at -20 °C. Sections were washed with PBS and mounted in Vectashield aqueous mounting medium with DAPI (Vector laboratories). Fluorescent specimens were analyzed using an ECLIPSE Ti microscope (Nikon), lenses with hardened […]
# (1 picture or pasted object on this page, not shown here) […]
# filters (Nikon), and a Nikon DS-Fi1 camera, which was operated by NIS Elements computer software (Nikon). Confocal microscopy was performed with a Leica SP-1 microscope, with illumination at 488 nm and spectral detection. […]
# Mathematical model described8 and MxPro software (Stratagene) were used to process PCR data. End-point PCR reactions were assayed with PCR Master Mix (Promega). Samples were amplified in 34 cycles; each cycle consisted of 30 sec of denaturation at 95 °C, 30 sec of annealing at 60 °C, and 30 sec of elongation at 72 °C. After 34 cycles, samples were subjected to final elongation for 5 minutes at 72 °C. […]
# fluorescence in the images.
# [1] = test system: mRNA for HDM2 in Huh7 cells; test: quantitative real-time PCR and end-point PCR of HDM2; format: cell-based, human; conditions: β-actin as loading control
# Description: Huh7 cells were incubated with spiroligomer 1 and Nutlin-3 in media at 2, 5, 10 and 20 µM for 17 hours at 37°C. […] Huh7 cells were then incubated with 1 at 15 µM and cells were harvested at 2, 4, 6, 8, 12 and 24 hours. […] Our hypothesis is that compound 1 stabilizes HDM2 to proteolysis. Studies are underway to determine the mechanism of HDM2 stabilization by compound 1.
# RNA Extraction, Reverse Transcription and PCR Analysis. Total RNA was extracted using High Pure RNA Isolation Kit (Roche Applied Science) according to enclosed instructions. cDNA was prepared using RETROscript Reverse Transcription Kit (Ambion). HDM2 primers (Ensembl […]
# (forward) and 5'-[…]-3' (reverse). These primers recognize cDNAs of all HDM2 isoforms with p53 binding sequence7 and generate 102 bp amplicon. β-actin primers for 243 bp PCR transcript (Ensemble gene: Actb, ENSRNOG00000034254) were 5’- […]
# […]-3’ (forward) and 5’-[…]-3’ (reverse).
# Primers were designed using Primer3Plus Web Interface. cDNA was amplified using FastStart SYBR Green Master Kit (Roche Applied Science). Real-time quantitative PCR was performed using Stratagene Mx 3005P QPCR system. PCR samples were amplified in 40 cycles; each cycle consisted of 60 sec of denaturation at 95 °C, 60 sec of annealing at 60 °C, and 60 sec of elongation at 72 °C. […]
# Figure S.7. Real-time quantitative PCR (A.) and end-point PCR (B.) analysis of HDM2 in Huh7 cells […]
structure (smiles),measurement,setting,value
CC(C)CN1C(=O)[C@@H]2C[C@@]3(CN2C(=O)[C@@]12C[C@H]1C(=O)N(Cc4ccc(Cl)c(Cl)c4)[C@]4(C[C@@H]5C(=O)N[C@@H](CCc6ccccc6)C(=O)N5C4)C(=O)N1C2)NC(=O)[C@@H](CCCCNC(=S)Nc1ccc2c(c1)C(=O)OC21c2ccc(O)cc2Oc2cc(O)ccc21)NC3=O [Compound 1],selectivity HDM2 versus HDMX,HDMX; Kd HDM2 0.4 µM versus Kd HDMX 19 µM,selective for HDM2
same,Kd,HDMX; data not shown,19 µM
same,mechanism of cell penetration,HepG2 cells,passive diffusion
same,uptake of fluorescence with active transport inhibited,"HepG2 cells; HepG2, 37°C, 60 min pre-treatment with 10 mM sodium azide and 50 mM deoxy-D-glucose, 5 µM, 3.75 hours",indistinguishable from control cells treated with 1 at 37 °C
same,level of mRNA for HDM2,[1],no effect; also recorded: no difference in HDM2 expression levels
